Assay results reported in the NIST ThermoML archive (doi:10.1021/acs.jced.5b00936).

Experiments:
[1] = for viscosity / mass density: 100 kPa, Liquid; for viscosity: Concentric cylinders viscometry; for mass density: Vibrating tube method; for Triple point temperature: Crystal, DSC
[2] = refractive index (Na D-line) (dimensionless); conditions: 100 kPa, Liquid, Standard Abbe refractometry

CCCC[P+](CCCC)(CCCC)CCCC.O=S(=O)([O-])CCN(CCO)CCO
Conditions	mass density, [1] [kg/m3]	refractive index, [2]	viscosity, [1] [mPa·s]
288.15 K	1066.8	1.49778	41313
293.15 K	1063.9	1.4964	24078
298.15 K	1061	1.49502	14082
303.15 K	1058.1	1.49365	8504.9
308.15 K	1055.3	1.49333	5315.8
313.15 K	1052.4	1.49198	3370.9
318.15 K	1049.6	1.49061	2199.4
323.15 K	1046.8	1.48921	1356.9
328.15 K	1044	1.48744	871
333.15 K	1041.2	1.4859	611.8
338.15 K	1038.4	1.48437	458.9
343.15 K	1035.6	1.48287	352.3
348.15 K	1032.8	1.48142	273.6
353.15 K	1030.1	1.48003	214.5

CCCC[P+](CCCC)(CCCC)CCCC.O=S(=O)([O-])CC(O)CNC(CO)(CO)CO
Conditions	Triple point temperature [K]
[1]	369.15

CCCC[P+](CCCC)(CCCC)CCCC.O=S(=O)([O-])CC(O)CN1CCOCC1 [tetrabutylphosphonium 2-hydroxy-3-morpholinopropanesulfonate]
Conditions	mass density, [1] [kg/m3]	refractive index, [2]	viscosity, [1] [mPa·s]
288.15 K	1062.9	1.4959	22869
293.15 K	1059.9	1.49447	12430
298.15 K	1056.8	1.49299	7312.9
303.15 K	1053.7	1.49152	4493.6
308.15 K	1050.5	1.48999	2859.8
313.15 K	1047.5	1.48836	1889.2
318.15 K	1044.4	1.4866	1277
323.15 K	1041.3	1.48573	886.7
328.15 K	1038.2	1.4841	630.4
333.15 K	1035.1	1.48239	457.8
338.15 K	1032.1	1.48069	339.2
343.15 K	1029.1	1.47908	255.6
348.15 K	1026.2	1.47761	195.8
353.15 K	–	1.47622	152.3

C[N+](C)(C)CCO.O=S(=O)([O-])CC(O)CNC1CCCCC1 (centres undefined)
Conditions	Triple point temperature [K]
[1]	365.15

C[N+](C)(C)CCO.O=S(=O)([O-])CC(O)CNC(CO)(CO)CO (centres undefined)
Conditions	mass density, [1] [kg/m3]	refractive index, [2]	viscosity, [1] [mPa·s]
323.15 K	–	1.50991	–
328.15 K	1316.4	1.50884	56778
333.15 K	1313.3	1.50769	34168
338.15 K	1310.3	1.50654	21501
343.15 K	1307.4	1.50552	14013
348.15 K	1304.6	1.5044	9355.9
353.15 K	1301.8	1.50327	6385.4

CCCC[N+](CCCC)(CCCC)CCCC.O=S(=O)([O-])CC(O)CNC1CCCCC1
Conditions	mass density, [1] [kg/m3]	refractive index, [2]	viscosity, [1] [mPa·s]
308.15 K	1020.4	1.48329	41227
313.15 K	1017.3	1.48189	22114
318.15 K	1014.4	1.48037	12579
323.15 K	1011.5	1.47937	7480.4
328.15 K	1008.6	1.47772	4609.3
333.15 K	1005.7	1.47617	2935.7
338.15 K	1002.8	1.47449	1926.8
343.15 K	999.9	1.47291	1299.4
348.15 K	997.2	1.47137	898.5
353.15 K	994.3	1.46985	635.7

C[N+](C)(C)CCO.O=S(=O)([O-])CC(O)CN1CCOCC1 (centres undefined)
Conditions	mass density, [1] [kg/m3]	refractive index, [2]	viscosity, [1] [mPa·s]
308.15 K	1235.3	1.49778	49189
313.15 K	1232	1.49658	28090
318.15 K	1228.7	1.49531	16897
323.15 K	1225.6	1.49453	10898
328.15 K	1222.5	1.49323	6933.2
333.15 K	1219.5	1.49185	4600.3
338.15 K	1216.5	1.48995	3099.4
343.15 K	1213.5	1.48831	2158.8
348.15 K	1211.6	1.48671	1545.5
353.15 K	1209.7	1.4852	1122.3
